Measurements as given in US20260035339A1, “TETRAHYDRONAPHTHALENE DERIVATIVE” (ATRANSEN PHARMA LTD., priority 2022, published 2026).
pIC50: −log10 of the molar value.

How the values were obtained:
human LAT1 = human LAT1 (Homo sapiens, UniProt Q01650); assay: [14C]L-leucine uptake inhibition test using human-LAT1 stably expressing HEK293 cell line; format: cell-based; set-up: having full-length cDNA of human LAT1 or LAT2 inserted under a promoter of CMV; expressed in transfected cells; key to Assay Data: degree of [14C]L-leucine uptake inhibition compared with BCH: a test compound having a higher inhibitory effect than BCH is denoted by A; a test compound having the same inhibitory effect as BCH is denoted by B; a test compound having a lower inhibitory effect than BCH is denoted by C
Chain of human LAT1 (Q01650 whole entry, one chain of several): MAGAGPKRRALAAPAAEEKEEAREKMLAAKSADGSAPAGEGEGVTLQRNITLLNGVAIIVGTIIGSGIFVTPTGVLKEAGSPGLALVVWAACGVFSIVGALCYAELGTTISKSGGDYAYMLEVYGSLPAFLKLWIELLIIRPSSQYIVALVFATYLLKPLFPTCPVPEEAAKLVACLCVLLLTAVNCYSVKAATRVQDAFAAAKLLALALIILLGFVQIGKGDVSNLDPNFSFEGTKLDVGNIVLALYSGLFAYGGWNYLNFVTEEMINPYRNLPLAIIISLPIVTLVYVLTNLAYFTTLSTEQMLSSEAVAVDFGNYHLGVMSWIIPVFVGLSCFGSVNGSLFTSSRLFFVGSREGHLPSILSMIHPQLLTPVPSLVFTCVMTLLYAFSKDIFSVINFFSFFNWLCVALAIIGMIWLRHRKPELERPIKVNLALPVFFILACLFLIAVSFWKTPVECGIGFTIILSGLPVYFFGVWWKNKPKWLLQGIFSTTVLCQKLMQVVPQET
Outline: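 HEK293 cells stably expressing human LAT1, preincubated 10 min in Na^+-free HBSS, then exposed 1 min to 1 μM [14C]L-leucine with racemic compound (0.1, 1.0, 10, 0 μM). Lysate radioactivity counted by scintillation and normalized to protein as uptake per mg protein per minute; graded against BCH.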

human LAT2 = target: T1, human LAT2 (Homo sapiens, UniProt Q9UHI5); assay: [14C]L-alanine uptake inhibition test using human-LAT2 stably expressing HEK293 cell line; format: cell-based
T1 construct: having full-length cDNA of human LAT1 or LAT2 inserted under a promoter of CMV; expressed in transfected cells
T1 sequence (Q9UHI5 1-535): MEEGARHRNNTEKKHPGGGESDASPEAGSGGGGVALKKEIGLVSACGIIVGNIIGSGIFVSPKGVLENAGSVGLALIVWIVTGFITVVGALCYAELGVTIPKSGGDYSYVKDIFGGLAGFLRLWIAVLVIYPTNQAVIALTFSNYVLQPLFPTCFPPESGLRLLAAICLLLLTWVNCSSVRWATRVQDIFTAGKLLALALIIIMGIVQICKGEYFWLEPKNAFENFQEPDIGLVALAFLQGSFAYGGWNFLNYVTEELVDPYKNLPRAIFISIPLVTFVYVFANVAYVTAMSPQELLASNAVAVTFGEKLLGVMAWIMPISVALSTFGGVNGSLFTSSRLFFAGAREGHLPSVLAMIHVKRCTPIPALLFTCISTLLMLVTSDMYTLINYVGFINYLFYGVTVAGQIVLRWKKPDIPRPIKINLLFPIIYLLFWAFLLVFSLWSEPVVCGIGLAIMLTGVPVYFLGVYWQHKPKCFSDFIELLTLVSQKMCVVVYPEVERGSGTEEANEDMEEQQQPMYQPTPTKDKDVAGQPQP
T1 sequence (P08195 1-529 partner): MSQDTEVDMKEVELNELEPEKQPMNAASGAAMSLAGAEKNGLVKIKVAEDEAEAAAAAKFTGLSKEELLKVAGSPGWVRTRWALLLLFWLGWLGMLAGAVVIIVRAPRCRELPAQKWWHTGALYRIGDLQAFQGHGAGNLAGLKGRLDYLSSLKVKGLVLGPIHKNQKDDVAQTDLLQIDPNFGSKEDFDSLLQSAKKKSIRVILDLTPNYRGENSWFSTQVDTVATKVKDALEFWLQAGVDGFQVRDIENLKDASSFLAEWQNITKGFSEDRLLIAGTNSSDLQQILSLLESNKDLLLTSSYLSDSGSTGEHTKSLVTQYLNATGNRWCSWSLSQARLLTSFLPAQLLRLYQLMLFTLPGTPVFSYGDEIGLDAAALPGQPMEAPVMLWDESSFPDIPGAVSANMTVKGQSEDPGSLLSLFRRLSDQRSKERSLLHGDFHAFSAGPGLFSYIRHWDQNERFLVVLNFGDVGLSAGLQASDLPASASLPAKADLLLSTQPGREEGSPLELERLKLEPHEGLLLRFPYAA
Description: HEK293 cells stably expressing human LAT1 and LAT2 were produced, respectively.
A shuttle vector DNA (LAT1: pcDNA3.1(+) -hLAT1, LAT2: pcDNA3.1(+) -hLAT2; expression vector pcDNA3.1 (+) was produced by Invitrogen Corp.) having ampicillin and neomycin resistance markers and having full-length cDNA of human LAT1 or LAT2 inserted under a promoter of CMV (cytomegalovirus) was constructed. This vector was transfected into the HEK293 cells by a method using Lipofectamine (registered trademark) 2000 (Invitrogen Corp.) according to the manufacturer's instructions. […]
[^14C]L-alanine uptake inhibition using the compound of Example 1-1 was performed using the human-LAT2 stably expressing HEK293 cell line. In the same manner as in the [^14C]L-leucine uptake inhibition experiment in the human-LAT1 stably expressing HEK293 cell line, the human-LAT2 stably expressing HEK293 cell line was seeded in a 24-well plate at 1×10^5 Cell/Well, and after 48 hours, 1 μM of [^14C]L-alanine was taken up in Na^+-free HBSS in the presence of the compound (0.1, 1.0, 10, 0 μM in each case), which is a racemic form, of Example 1-1 for 1 minute, then the uptake amount of [^14C]L-alanine and the protein amount of the cell lysate were measured, and the uptake amount of [^14C]L-alanine per 1 mg of protein in the cell per minute was determined.

suppression rate of labeled leucine uptake (human LAT1; 0.1 μM of the compound (racemic form)): about 70%
Assay Data: degree of [14C]L-leucine uptake inhibition compared with BCH (human LAT1; compound (racemic form) and BCH at 0.1, 1.0, 10 μM, 1 μM [14C]L-leucine, 1 minute, Na+-free HBSS): A
pIC50 (human LAT1; racemic form, 1 μM [14C]L-leucine, 1 minute, read-out: 50% suppression concentration (racemic form), [14C]L-leucine uptake): ≥ 7.00
LAT1 inhibitory effect, compounds singled out (in words) (human LAT1; same test as Table 1): particularly remarkable effects
inhibitory action on LAT2 alanine uptake compared with LAT1 leucine uptake inhibition (human LAT2; LAT2 versus LAT1 stably expressing HEK293 cell line): weaker inhibitory action
pIC50 (human LAT2; racemic form, 1 μM [14C]L-alanine, 1 minute, Na+-free HBSS, read-out: 50% suppression concentration, [14C]L-alanine uptake): ~6.00
SMILES: NC1(C(=O)O)CCc2ccc(Oc3ccc4ccccc4c3)cc2C1 (stereo not drawn) [Example 1-1, 2-carboxy-7-(naphthalene-2-yloxy)-1,2,3,4-tetrahydronaphthalene-2-aminium chloride]
